In patent publication US4200635A, “Antibacterially active amides” (Beecham Group Limited, priority 1977, dated 1980):
Values after ≈ are worked out from the molar mass of the structure shown. Where two headings read alike, the source gives them in different places.

Assays:
[1] = tested on: Neisseria flavescens 8263; assay: MIC, serial dilution in nutrient agar, human bacteria; assay type: cell-based; conditions: nutrient agar containing 5% chocolated horse blood
[2] = tested on: Strep. pneumoniae CN33; assay: as above; assay type: cell-based; conditions: Streptococcus pneumoniae
[3] = tested on: M. pulmonis JB; assay: in vitro MIC, anti-mycoplasmal activity; assay type: cell-based; conditions: Mycoplasmopsis pulmonis, Friis' broth, microtiter method
Source text: (§1) Tables 3 and 4 show the in vitro MIC values (μg/ml) of the compounds of Examples 1 to 9 against a number of mycoplasma organisms, determined in Friis' broth using the microtiter method.

[4] = tested on: M. fermentans MWKL4; assay: in vitro MIC, anti-mycoplasmal activity; assay type: cell-based; conditions: Mycoplasmopsis fermentans, Friis' broth, microtiter method
Source text: as §1

[5] = tested on: M. dispar NCTC 10125; assay: in vitro MIC, anti-mycoplasmal activity; assay type: cell-based; conditions: Friis' broth, microtiter method
Source text: as §1

[6] = tested on: M. suipneumoniae J2206/183b; assay: in vitro MIC, anti-mycoplasmal activity; assay type: cell-based; conditions: Mesomycoplasma hyopneumoniae, Friis' broth, microtiter method
Source text: as §1

[7] = tested on: Staph. aureus Oxford; assay: MIC, serial dilution in nutrient agar, human bacteria; assay type: cell-based; conditions: Staphylococcus aureus
[8] = tested on: Pasteurella multocida 1633; assay: as above; assay type: cell-based; conditions: nutrient agar containing 5% chocolated horse blood
[9] = tested on: M. pneumoniae 427a; assay: in vitro MIC, anti-mycoplasmal activity; assay type: cell-based; conditions: Mycoplasmoides pneumoniae, Friis' broth, microtiter method
[10] = tested on: Haemophilus influenzae Q1; assay: MIC, serial dilution in nutrient agar, human bacteria; assay type: cell-based; conditions: nutrient agar containing 5% chocolated horse blood
[11] = tested on: Staph. aureus Russell; assay: as above; assay type: cell-based; conditions: Staphylococcus aureus
[12] = tested on: Bacillus subtilis 6633; assay: as above; assay type: cell-based
[13] = tested on: Staph. aureus B4; assay: MIC, veterinary bacteria; assay type: cell-based; conditions: Staphylococcus aureus; Staph. aureus B4; read-out: M.I.C.
[14] = tested on: Neisseria catarrhalis 1502; assay: MIC, serial dilution in nutrient agar, human bacteria; assay type: cell-based
[15] = tested on: M. dispar H225; assay: in vitro MIC, anti-mycoplasmal activity; assay type: cell-based
Source text: as §1

[16] = tested on: M. pneumoniae ATCC 15492; assay: in vitro MIC, anti-mycoplasmal activity; assay type: cell-based; conditions: Mycoplasmoides pneumoniae, ATCC15492, Friis' broth, microtiter method
Source text: as §1

[17] = tested on: Staph. aureus 152; assay: MIC, veterinary bacteria; assay type: cell-based; conditions: Staphylococcus aureus
[18] = tested on: Haemophilus influenzae Wy21; assay: MIC, serial dilution in nutrient agar, human bacteria; assay type: cell-based
[19] = tested on: Strep. uberis SPU 1; assay: MIC, veterinary bacteria; assay type: cell-based; conditions: Streptococcus uberis, SPU1
[20] = tested on: Past. haemolytica PA5; assay: MIC, veterinary bacteria; assay type: cell-based; conditions: Mannheimia haemolytica; Past. haemolytica PA5; read-out: M.I.C.
[21] = tested on: M. suipneumoniae Str. 11; assay: in vitro MIC, anti-mycoplasmal activity; assay type: cell-based; conditions: Mesomycoplasma hyopneumoniae, Friis' broth, microtiter method
[22] = tested on: Bord. bronchiseptica BO9; assay: MIC, veterinary bacteria; assay type: cell-based; conditions: Bordetella bronchiseptica
[23] = tested on: Strep. dysgalactiae SPD 1; assay: MIC, veterinary bacteria; assay type: cell-based; conditions: Streptococcus dysgalactiae, SPD1
[24] = tested on: Past. multocida PAI; assay: MIC, veterinary bacteria; assay type: cell-based; conditions: Pasteurella multocida
[25] = Mouse blood levels; assay type: in vivo, male albino mice, CS1 strain
Method: The blood levels of the 5-ethoxycarbonylpentyl amide of monic acid A were measured after subcutaneous dosing to male albino mice.
Species: Albino male mice 18-22 g CS1 strain.
Routes: Subcutaneous and oral.
Dose: 50 mg/kg. This compound was supplied as an oil. It was administered as a solution in 10% DMF v/v in PBS or water.
Assay: Neisseria catarrhalis, immediate assay of samples.

[26] = Strep. pneumoniae CN33, nutrient agar containing 5% chocolated horse blood, read-out: M.I.C.
[27] = Staph. aureus Oxford, nutrient agar containing 5% chocolated horse blood, read-out: M.I.C.
[28] = Staph. aureus Russell, nutrient agar containing 5% chocolated horse blood, read-out: M.I.C.
[29] = Bacillus subtilis 6633, nutrient agar containing 5% chocolated horse blood, read-out: M.I.C.
[30] = Neisseria catarrhalis 1502, nutrient agar containing 5% chocolated horse blood, read-out: M.I.C.
[31] = Strep. uberis SPU 1, read-out: M.I.C.
[32] = Strep. dysgalactiae SPD 1, read-out: M.I.C.
[33] = M. dispar H225, Friis' broth, microtiter method, read-out: M.I.C.
[34] = Past. multocida PAI, read-out: M.I.C.
[35] = Haemophilus influenzae Wy21, nutrient agar containing 5% chocolated horse blood, read-out: M.I.C.
[36] = Bord. bronchiseptica BO9, read-out: M.I.C.

CNC(=O)C=C(C)CC1OCC(CC2OC2C(C)C(C)O)C(O)C1O (stereo not drawn) [Example 2, N-Methylamide of monic acid A]
MIC [1]: 1 µg/mL (≈ 2.8 µM) | MIC [2, 26]: 25 µg/mL (≈ 69.9 µM) | MIC [3]: 1 µg/mL (≈ 2.8 µM) | MIC [4]: 7.8 µg/mL (≈ 21.8 µM) | MIC [5]: < 0.5 µg/mL | MIC [6]: < 0.5 µg/mL | MIC [7, 27]: 2.5 µg/mL (≈ 6.99 µM) | MIC [8]: 2.5 µg/mL (≈ 6.99 µM) | MIC [9]: 125 µg/mL (≈ 350 µM) | MIC [10]: 0.2 µg/mL (≈ 0.56 µM) | MIC [11, 28]: 25 µg/mL (≈ 69.9 µM) | MIC [12, 29]: 10 µg/mL (≈ 28 µM)

CC(=CC(=O)N1CCOCC1)CC1OCC(CC2OC2C(C)C(C)O)C(O)C1O (stereo not drawn) [Example 6, Morpholinyl amide of monic acid A]
MIC [13]: 20 µg/mL (≈ 48.4 µM) | MIC [2, 26]: 10 µg/mL (≈ 24.2 µM) | MIC [14, 30]: 5 µg/mL (≈ 12.1 µM) | MIC [3]: 0.156 µg/mL (≈ 0.377 µM) | MIC [15]: 1.25 µg/mL (≈ 3.02 µM) | MIC [16]: > 10 µg/mL | MIC [4]: 0.625 µg/mL (≈ 1.51 µM) | MIC [5]: 2.5 µg/mL (≈ 6.05 µM) | MIC [6]: 10 µg/mL (≈ 24.2 µM) | MIC [17]: > 80 µg/mL | MIC [7, 27]: 10 µg/mL (≈ 24.2 µM) | MIC [8]: 1 µg/mL (≈ 2.42 µM) | MIC [9]: > 10 µg/mL | MIC ([18]; Haemophilus influenzae, WY21): 0.5 µg/mL (≈ 1.21 µM) | MIC [19, 31]: 2.5 µg/mL (≈ 6.05 µM) | MIC [20]: 20 µg/mL (≈ 48.4 µM) | MIC [21]: 2.5 µg/mL (≈ 6.05 µM) | MIC ([22]; BO9): 20 µg/mL (≈ 48.4 µM) | MIC [10]: 0.2 µg/mL (≈ 0.484 µM) | MIC [11, 28]: 50 µg/mL (≈ 121 µM) | MIC [23, 32]: 2.5 µg/mL (≈ 6.05 µM) | MIC [24]: 0.625 µg/mL (≈ 1.51 µM) | MIC ([12]; Bacillus subtilis, 6633): 10 µg/mL (≈ 24.2 µM)

COC(=O)CCCCCNC(=O)C=C(C)CC1OCC(CC2OC2C(C)C(C)O)C(O)C1O (stereo not drawn) [Example 9, 5-Methoxycarbonylpentylamide of monic acid A]
MIC [13]: 20 µg/mL (≈ 42.4 µM) | MIC ([2]; CN33): 2.5 µg/mL (≈ 5.3 µM) | MIC [14, 30]: < 0.02 µg/mL | MIC [3]: 0.039 µg/mL (≈ 0.0827 µM) | MIC [15, 33]: 0.312 µg/mL (≈ 0.662 µM) | MIC [4]: 0.039 µg/mL (≈ 0.0827 µM) | MIC [5]: 0.312 µg/mL (≈ 0.662 µM) | MIC [6]: 1.25 µg/mL (≈ 2.65 µM) | MIC [17]: 20 µg/mL (≈ 42.4 µM) | MIC [7]: 25 µg/mL (≈ 53 µM) | MIC [8]: 0.2 µg/mL (≈ 0.424 µM) | MIC [9]: 5 µg/mL (≈ 10.6 µM) | MIC [19]: 0.625 µg/mL (≈ 1.33 µM) | MIC [20]: 10 µg/mL (≈ 21.2 µM) | MIC [21]: 0.625 µg/mL (≈ 1.33 µM) | MIC ([22]; BO9): 10 µg/mL (≈ 21.2 µM) | MIC [10]: 0.2 µg/mL (≈ 0.424 µM) | MIC [11]: 100 µg/mL (≈ 212 µM) | MIC [23]: 0.312 µg/mL (≈ 0.662 µM) | MIC [24, 34]: 10 µg/mL (≈ 21.2 µM) | MIC [12, 29]: 10 µg/mL (≈ 21.2 µM)

CCOC(=O)CCCCCNC(=O)C=C(C)CC1OCC(CC2OC2C(C)C(C)O)C(O)C1O (stereo not drawn) [Example 5, 5-Ethoxycarbonylpentylamide of monic acid A]
MIC [13]: 11 µg/mL (≈ 22.7 µM) | concentration at 5 min ([25]; blood, sc, 5 minutes after dosing, 50 mg/kg subcutaneous, mean of 5 experiments, assay Neisseria catarrhalis, read-out: Concentration (blood level)): 22100 ng/mL | concentration at 10 min ([25]; blood, sc, 10 minutes after dosing, 50 mg/kg subcutaneous, mean of 5 experiments, assay Neisseria catarrhalis, read-out: Concentration (blood level)): 22600 ng/mL | concentration at 20 min ([25]; blood, sc, 20 minutes after dosing, 50 mg/kg subcutaneous, mean of 5 experiments, assay Neisseria catarrhalis, read-out: Concentration (blood level)): 16100 ng/mL | concentration at 0.5 h ([25]; blood, sc, 30 minutes after dosing, 50 mg/kg subcutaneous, mean of 5 experiments, assay Neisseria catarrhalis, read-out: Concentration (blood level)): 9100 ng/mL | concentration at 1 h ([25]; blood, sc, 60 minutes after dosing, 50 mg/kg subcutaneous, mean of 5 experiments, assay Neisseria catarrhalis, read-out: Concentration (blood level)): < 4000 ng/mL | half-life ([25]; sc, 50 mg/kg subcutaneous, blood): 15 min | blood levels compared with pseudomonic acid ([25]; subcutaneous dosing): higher and more prolongued than those obtained after subcutaneous dosing of pseudomonic acid | MIC [2, 26]: 1 µg/mL (≈ 2.06 µM) | MIC ([14]; Neisseria, 1502): 0.05 µg/mL (≈ 0.103 µM) | MIC [3]: < 0.02 µg/mL | MIC [15, 33]: 0.312 µg/mL (≈ 0.642 µM) | MIC [16]: 10 µg/mL (≈ 20.6 µM) | MIC [4]: 0.039 µg/mL (≈ 0.0803 µM) | MIC [5]: 0.156 µg/mL (≈ 0.321 µM) | MIC [6]: 2.5 µg/mL (≈ 5.15 µM) | MIC [17]: 45 µg/mL (≈ 92.7 µM) | MIC [7, 27]: 25 µg/mL (≈ 51.5 µM) | MIC [9]: > 10 µg/mL | MIC [18, 35]: 0.5 µg/mL (≈ 1.03 µM) | MIC [19, 31]: 0.35 µg/mL (≈ 0.721 µM) | MIC [20]: 11 µg/mL (≈ 22.7 µM) | MIC [21]: 1.25 µg/mL (≈ 2.57 µM) | MIC [22, 36]: 23 µg/mL (≈ 47.4 µM) | MIC [10]: 0.05 µg/mL (≈ 0.103 µM) | MIC [11, 28]: 50 µg/mL (≈ 103 µM) | MIC [23, 32]: 0.7 µg/mL (≈ 1.44 µM) | MIC [24, 34]: 0.35 µg/mL (≈ 0.721 µM) | MIC [12, 29]: 10 µg/mL (≈ 20.6 µM)

CC(=CC(=O)N(C)C)CC1OCC(CC2OC2C(C)C(C)O)C(O)C1O (stereo not drawn) [Example 4, Dimethylamide of monic acid A]
MIC [13]: 20 µg/mL (≈ 53.8 µM) | MIC [2, 26]: 50 µg/mL (≈ 135 µM) | MIC [14, 30]: 2.5 µg/mL (≈ 6.73 µM) | MIC [3]: 5 µg/mL (≈ 13.5 µM) | MIC [15, 33]: 5 µg/mL (≈ 13.5 µM) | MIC [16]: > 10 µg/mL | MIC [4]: 1.25 µg/mL (≈ 3.36 µM) | MIC [5]: 2.5 µg/mL (≈ 6.73 µM) | MIC [6]: > 10 µg/mL | MIC [17]: > 80 µg/mL | MIC [7, 27]: 5 µg/mL (≈ 13.5 µM) | MIC [8]: 2.5 µg/mL (≈ 6.73 µM) | MIC [9]: > 10 µg/mL | MIC [18, 35]: 2.5 µg/mL (≈ 6.73 µM) | MIC [19, 31]: 20 µg/mL (≈ 53.8 µM) | MIC [20]: 40 µg/mL (≈ 108 µM) | MIC [21]: 10 µg/mL (≈ 26.9 µM) | MIC [22, 36]: 40 µg/mL (≈ 108 µM) | MIC [10]: 2.5 µg/mL (≈ 6.73 µM) | MIC [11, 28]: 25 µg/mL (≈ 67.3 µM) | MIC [23, 32]: 20 µg/mL (≈ 53.8 µM) | MIC [24, 34]: 5 µg/mL (≈ 13.5 µM) | MIC [12, 29]: 25 µg/mL (≈ 67.3 µM)
